Active and inactive are the calls of the source.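 How the source made its calls: active means IC50 at or below 20 µM; inactive means the rest.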
What follows are compounds tested against Tyrosine-protein phosphatase non-receptor type 22 (Homo sapiens) (UniProt Q9Y2R2) (assay: LYP phosphatase inhibition for selectivity, SAR follow-up, selectivity assay for LMPTP inhibitor project, biochemical, fluorescence, LYP catalytic domain (AID 743309)). Conditions: recombinant LYP catalytic domain, OMFP fluorescence.
Tyrosine-protein phosphatase non-receptor type 22 (Homo sapiens), sequence (Q9Y2R2 whole entry, looked up, the tested form may be a part): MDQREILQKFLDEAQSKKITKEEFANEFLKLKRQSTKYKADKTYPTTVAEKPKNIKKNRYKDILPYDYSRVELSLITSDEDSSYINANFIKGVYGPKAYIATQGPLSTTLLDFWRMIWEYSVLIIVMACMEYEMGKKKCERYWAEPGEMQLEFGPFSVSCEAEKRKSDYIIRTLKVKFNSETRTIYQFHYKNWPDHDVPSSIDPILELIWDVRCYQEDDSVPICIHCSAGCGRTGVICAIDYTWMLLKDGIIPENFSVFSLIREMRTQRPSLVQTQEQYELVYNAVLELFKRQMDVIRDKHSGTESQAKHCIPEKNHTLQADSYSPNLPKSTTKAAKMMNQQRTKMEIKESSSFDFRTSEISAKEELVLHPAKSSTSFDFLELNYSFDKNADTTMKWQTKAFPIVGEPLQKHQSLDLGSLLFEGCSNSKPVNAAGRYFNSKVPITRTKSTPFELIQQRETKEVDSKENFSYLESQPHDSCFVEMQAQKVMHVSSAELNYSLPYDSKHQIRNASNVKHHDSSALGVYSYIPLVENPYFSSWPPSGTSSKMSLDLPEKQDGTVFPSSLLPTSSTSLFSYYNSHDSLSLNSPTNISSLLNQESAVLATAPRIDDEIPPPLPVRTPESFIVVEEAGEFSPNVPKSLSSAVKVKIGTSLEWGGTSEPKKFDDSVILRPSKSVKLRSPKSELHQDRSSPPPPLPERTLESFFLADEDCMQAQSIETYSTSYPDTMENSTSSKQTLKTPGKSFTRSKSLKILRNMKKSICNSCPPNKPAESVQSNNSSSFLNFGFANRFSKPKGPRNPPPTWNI

Row | SMILES | IC50
1 | c1ccc(-c2nc(N3CCOCC3)c3ccccc3n2)cc1 | > 80 µM (inactive)
2 | c1ccc(-c2cc(NCCCN3CCCCC3)c3ccccc3n2)cc1 | > 80 µM (inactive)
3 | Fc1ccc2nc(-c3ccccc3)cc(NCCCN3CCCCC3)c2c1 | > 80 µM (inactive)
4 | c1ccc(-c2nc(NC3CCCCC3)c3ccccc3n2)cc1 | > 80 µM (inactive)
5 | CC(C)Nc1nc(-c2ccccc2)nc2ccccc12 | > 80 µM (inactive)
6 | CCN(CC)c1nc(-c2ccccc2)nc2ccccc12 | > 80 µM (inactive)
7 | c1ccc(-c2nc(NCCN3CCCCC3)c3ccccc3n2)cc1 | > 80 µM (inactive)
8 | CC(C)OCCCNc1nc(-c2ccccc2)nc2ccccc12 | > 80 µM (inactive)
9 | c1ccc(-c2cc(NCCN3CCCC3)c3ccccc3n2)cc1 | > 80 µM (inactive)
10 | c1ccc(-c2nc(NCCCN3CCOCC3)c3ccccc3n2)cc1 | > 80 µM (inactive)
11 | c1ccc(-c2cc(OCCCN3CCCCC3)c3ccccc3n2)cc1 | > 80 µM (inactive)
12 | c1ccc(-c2nc(NC3CC3)c3ccccc3n2)cc1 | > 80 µM (inactive)
13 | CC(C)CNc1nc(-c2ccccc2)nc2ccccc12 | > 80 µM (inactive)
14 | Cc1ccc(-c2cc(NCCCN3CCCCC3)c3ccccc3n2)cc1 | > 80 µM (inactive)
15 | c1ccc(-c2nc(N3CCCCCC3)c3ccccc3n2)cc1 | > 80 µM (inactive)
16 | Fc1cccc(-c2cc(NCCCN3CCCCC3)c3ccccc3n2)c1 | > 80 µM (inactive)
17 | O=C(OCCNc1nc(-c2ccccc2)nc2ccccc12)c1cccnc1 | > 80 µM (inactive)
18 | Cc1ccc(-c2nc(NCCN3CCOCC3)c3ccccc3n2)cc1 | > 80 µM (inactive)
19 | Nc1nc(N)c(Cc2ccc(Cl)cc2Cl)c(N)n1 | > 80 µM (inactive)
20 | c1ccc(-c2cc(SCCCN3CCCCC3)c3ccccc3n2)cc1 | > 80 µM (inactive)

Row | SMILES | IC50
21 | Fc1ccccc1-c1nc(NC2CCCC2)c2ccccc2n1 | > 80 µM (inactive)
22 | Clc1cccc(Cl)c1Cn1cnc(=NCc2ccco2)c2[nH]cnc21 | > 80 µM (inactive)
23 | c1ccc(-c2nc(N3CCCC3)c3ccccc3n2)cc1 | > 80 µM (inactive)
24 | c1ccc(-c2nc(N3CCCCC3)c3ccccc3n2)cc1 | > 80 µM (inactive)
25 | O=C(OCCNc1nc(-c2ccccc2)nc2ccccc12)c1ccncc1 | > 80 µM (inactive)
26 | Fc1ccc(-c2cc(NCCCN3CCCCC3)c3ccccc3n2)cc1 | > 80 µM (inactive)
27 | c1ccc2c(NCCCN3CCCCC3)cc(-c3ccncc3)nc2c1 | > 80 µM (inactive)
28 | CC1CCN(c2nc(-c3ccccc3)nc3ccccc23)CC1 | > 80 µM (inactive)
29 | Clc1cccc(-c2cc(NCCCN3CCCCC3)c3ccccc3n2)c1 | > 80 µM (inactive)
30 | Cc1ccc2nc(-c3ccccc3)cc(NCCCN3CCCCC3)c2c1 | > 80 µM (inactive)
31 | COc1cccc(-c2cc(NCCCN3CCCCC3)c3ccccc3n2)c1 | > 80 µM (inactive)
32 | CN1CCN(c2nc(-c3ccccc3)nc3ccccc23)CC1 | > 80 µM (inactive)
33 | c1ccc(-c2cc(N3CCCCC3)c3ccccc3n2)cc1 | > 80 µM (inactive)
34 | COc1ccccc1-c1cc(NCCCN2CCCCC2)c2ccccc2n1 | > 80 µM (inactive)
35 | Brc1ccc2nc(-c3ccccc3)cc(NCCCN3CCCCC3)c2c1 | > 80 µM (inactive)
36 | c1ccc(-c2cc(NCCCN3CCOCC3)c3ccccc3n2)cc1 | > 80 µM (inactive)
37 | CCCCNc1nc(-c2ccccc2)nc2ccccc12 | > 80 µM (inactive)
38 | c1ccc(-c2nc(NCCN3CCOCC3)c3ccccc3n2)cc1 | > 80 µM (inactive)
39 | Clc1ccccc1-c1cc(NCCCN2CCCCC2)c2ccccc2n1 | > 80 µM (inactive)
40 | Cc1ccc(-c2nc(NCc3cccnc3)c3ccccc3n2)cc1 | > 80 µM (inactive)

Row | SMILES | IC50
41 | c1ccc(-c2nc(NCCCn3ccnc3)c3ccccc3n2)cc1 | > 80 µM (inactive)
42 | c1ccc(-c2cc(NCCN3CCOCC3)c3ccccc3n2)cc1 | > 80 µM (inactive)
43 | CCc1nc(N)nc(N)c1-c1ccc(Cl)cc1 | > 80 µM (inactive)
44 | c1ccc(-c2nc(NCc3cccnc3)c3ccccc3n2)cc1 | > 80 µM (inactive)
45 | Cc1c(CCC(=O)O)c(=O)oc2c(C)c(OCc3ccccc3Cl)ccc12 | 15.7 µM
46 | c1ccc(-c2nc(NCCCN3CCCCC3)c3ccccc3n2)cc1 | > 80 µM (inactive)
47 | COc1ccccc1CNc1ncnc2ccsc12 | > 80 µM (inactive)
48 | CN(C)CCNc1nc(-c2ccccc2)nc2ccccc12 | > 80 µM (inactive)
49 | CN(C)CCNc1cc(-c2ccccc2)nc2ccccc12 | > 80 µM (inactive)
50 | COc1cc2nc(-c3ccccc3)cc(NCCCN3CCCCC3)c2cc1OC | > 80 µM (inactive)
51 | Clc1ccc(-c2cc(NCCCN3CCCCC3)c3ccccc3n2)cc1 | > 80 µM (inactive)
52 | c1ccc(-c2nc(NC3CCCC3)c3ccccc3n2)cc1 | > 80 µM (inactive)
53 | Cc1cccc(-c2nc(NCCCN3CCOCC3)c3ccccc3n2)c1 | > 80 µM (inactive)
54 | FC(F)(F)c1cccc(-c2cc(NCCCN3CCCCC3)c3ccccc3n2)c1 | > 80 µM (inactive)
55 | Fc1ccccc1-c1nc(NCCCN2CCOCC2)c2ccccc2n1 | > 80 µM (inactive)
56 | COc1ccc(-c2cc(NCCCN3CCCCC3)c3ccccc3n2)cc1 | > 80 µM (inactive)
57 | c1ccc(-c2nc(N3CCSCC3)c3ccccc3n2)cc1 | > 80 µM (inactive)
58 | c1ccc(-c2nc(NCCN3CCCC3)c3ccccc3n2)cc1 | > 80 µM (inactive)
59 | c1ccc(-c2cc(NCCN3CCCCC3)c3ccccc3n2)cc1 | > 80 µM (inactive)

Source: PubChem BioAssay AID743309 (Sanford-Burnham Center for Chemical Genomics, 2014)
